According to ChEMBL document CHEMBL4028852, “Design of a Chemical Probe for the Bromodomain and Plant Homeodomain Finger-Containing (BRPF) Family of Proteins” (J Med Chem, 2017):

Experiments:
Peregrin = target: T1, Peregrin (Homo sapiens, UniProt P55201); assay: Inhibition of human BRPF1 (627 to 740 residues) expressed in Escherichia coli BL21 after 1 hr by BROMOscan assay
T1 sequence (P55201 whole entry): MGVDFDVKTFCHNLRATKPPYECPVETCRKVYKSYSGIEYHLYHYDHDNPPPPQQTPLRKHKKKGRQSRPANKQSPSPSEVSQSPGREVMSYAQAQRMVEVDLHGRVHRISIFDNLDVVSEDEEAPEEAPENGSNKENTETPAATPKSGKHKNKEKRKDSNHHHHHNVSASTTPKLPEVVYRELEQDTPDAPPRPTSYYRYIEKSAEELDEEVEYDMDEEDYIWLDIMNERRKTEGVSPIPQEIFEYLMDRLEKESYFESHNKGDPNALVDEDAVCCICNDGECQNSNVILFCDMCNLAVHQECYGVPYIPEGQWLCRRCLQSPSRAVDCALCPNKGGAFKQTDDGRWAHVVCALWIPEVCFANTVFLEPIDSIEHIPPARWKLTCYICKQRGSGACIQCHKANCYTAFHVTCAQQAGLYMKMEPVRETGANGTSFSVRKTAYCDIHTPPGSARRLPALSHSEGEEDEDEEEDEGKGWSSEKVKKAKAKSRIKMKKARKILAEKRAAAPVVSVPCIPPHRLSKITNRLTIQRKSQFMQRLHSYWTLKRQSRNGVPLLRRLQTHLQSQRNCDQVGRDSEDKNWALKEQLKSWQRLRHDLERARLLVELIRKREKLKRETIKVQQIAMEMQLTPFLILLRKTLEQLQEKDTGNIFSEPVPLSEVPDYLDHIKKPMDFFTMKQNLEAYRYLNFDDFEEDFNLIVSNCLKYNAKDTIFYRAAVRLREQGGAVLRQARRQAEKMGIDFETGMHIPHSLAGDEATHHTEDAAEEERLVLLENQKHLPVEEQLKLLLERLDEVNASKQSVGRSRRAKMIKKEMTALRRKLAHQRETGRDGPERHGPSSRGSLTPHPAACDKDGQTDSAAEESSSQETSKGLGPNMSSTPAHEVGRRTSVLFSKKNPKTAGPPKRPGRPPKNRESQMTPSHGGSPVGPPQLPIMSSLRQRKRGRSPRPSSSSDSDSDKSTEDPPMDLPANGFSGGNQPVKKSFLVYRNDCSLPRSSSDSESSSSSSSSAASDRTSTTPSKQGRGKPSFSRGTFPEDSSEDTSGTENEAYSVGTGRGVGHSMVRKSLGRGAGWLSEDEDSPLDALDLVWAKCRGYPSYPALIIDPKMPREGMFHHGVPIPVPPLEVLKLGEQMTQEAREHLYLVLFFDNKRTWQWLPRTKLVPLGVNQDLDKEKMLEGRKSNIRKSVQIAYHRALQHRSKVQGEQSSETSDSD

[1] = target: T2, Bromodomain-containing protein 1 (Homo sapiens, UniProt O95696); assay: Inhibition of human BRPF2 (556 to 688 residues) expressed in Escherichia coli BL21 after 1 hr by BROMOscan assay
T2 sequence (O95696 whole entry): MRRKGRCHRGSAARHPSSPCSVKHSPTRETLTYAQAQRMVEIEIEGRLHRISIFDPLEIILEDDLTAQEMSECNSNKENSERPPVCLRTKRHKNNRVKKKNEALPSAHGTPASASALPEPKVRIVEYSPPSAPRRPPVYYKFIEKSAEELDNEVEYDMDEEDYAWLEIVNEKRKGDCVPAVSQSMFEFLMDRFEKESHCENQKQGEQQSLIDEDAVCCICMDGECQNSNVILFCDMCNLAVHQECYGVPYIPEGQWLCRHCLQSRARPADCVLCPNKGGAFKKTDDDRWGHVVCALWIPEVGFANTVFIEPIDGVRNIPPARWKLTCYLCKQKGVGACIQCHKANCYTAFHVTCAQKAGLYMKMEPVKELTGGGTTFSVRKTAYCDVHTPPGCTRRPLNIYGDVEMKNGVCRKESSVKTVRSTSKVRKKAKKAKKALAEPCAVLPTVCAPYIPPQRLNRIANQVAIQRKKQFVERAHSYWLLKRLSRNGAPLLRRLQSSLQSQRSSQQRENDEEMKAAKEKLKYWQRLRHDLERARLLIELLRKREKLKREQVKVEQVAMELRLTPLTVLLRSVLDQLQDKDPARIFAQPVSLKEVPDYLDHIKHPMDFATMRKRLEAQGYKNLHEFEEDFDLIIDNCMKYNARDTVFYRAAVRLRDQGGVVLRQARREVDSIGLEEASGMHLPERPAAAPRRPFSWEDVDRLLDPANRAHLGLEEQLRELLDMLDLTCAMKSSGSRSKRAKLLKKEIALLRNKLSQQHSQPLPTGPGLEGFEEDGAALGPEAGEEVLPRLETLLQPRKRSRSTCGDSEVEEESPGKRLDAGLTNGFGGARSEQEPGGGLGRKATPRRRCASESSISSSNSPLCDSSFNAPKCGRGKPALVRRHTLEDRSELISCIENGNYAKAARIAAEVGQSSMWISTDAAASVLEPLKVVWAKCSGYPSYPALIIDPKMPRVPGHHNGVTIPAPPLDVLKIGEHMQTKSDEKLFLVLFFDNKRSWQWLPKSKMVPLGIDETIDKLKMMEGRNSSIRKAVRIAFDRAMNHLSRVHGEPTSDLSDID

[2] = target: T3, Bromodomain-containing protein 9 (Homo sapiens, UniProt Q9H8M2)
T3 sequence (Q9H8M2 whole entry): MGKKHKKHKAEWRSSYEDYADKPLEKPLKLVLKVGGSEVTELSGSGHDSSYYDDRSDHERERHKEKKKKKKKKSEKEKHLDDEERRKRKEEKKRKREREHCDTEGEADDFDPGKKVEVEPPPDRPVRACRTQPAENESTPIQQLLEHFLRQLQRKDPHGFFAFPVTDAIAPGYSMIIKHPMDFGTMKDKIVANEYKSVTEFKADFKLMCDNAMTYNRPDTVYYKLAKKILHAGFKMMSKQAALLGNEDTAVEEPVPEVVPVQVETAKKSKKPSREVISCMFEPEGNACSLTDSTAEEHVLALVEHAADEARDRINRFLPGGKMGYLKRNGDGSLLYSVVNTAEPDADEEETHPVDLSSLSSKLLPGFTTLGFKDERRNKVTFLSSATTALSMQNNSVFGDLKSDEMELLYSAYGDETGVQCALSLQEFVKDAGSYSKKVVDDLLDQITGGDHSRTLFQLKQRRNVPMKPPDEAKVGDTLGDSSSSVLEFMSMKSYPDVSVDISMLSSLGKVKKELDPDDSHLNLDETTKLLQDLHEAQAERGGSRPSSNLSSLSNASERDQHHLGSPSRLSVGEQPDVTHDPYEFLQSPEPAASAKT
Description: Inhibition of human BRD9 (130 to 259 residues) expressed in Escherichia coli BL21 after 1 hr by BROMOscan assay

[3] = target: Bromodomain-containing protein 4 (Homo sapiens, UniProt O60885); assay: Inhibition of human BRD4 isoform long bromodomain 1 (44 to 168 residues) expressed in Escherichia coli BL21 after 1 hr by BROMOscan assay
Peregrin (Homo sapiens) = target: T4, Peregrin (Homo sapiens) (UniProt P55201)
T4 sequence (whole entry): T1 sequence (P55201 whole entry)
Description: Binding affinity to BRPF1 (unknown origin) assessed as change in melting temperature at 10 uM by differential scanning fluorimetry based thermal shift assay

SMILES	IC50 (Peregrin) [µM]	IC50 [1] [µM]	IC50 [2] [µM]	IC50 [3] [µM]	ΔTm (Peregrin (Homo sapiens)) [°C]
Cn1c(=O)ccc2cc(S(=O)(=O)Nc3ccccc3)ccc21	1	7.8	9.8	37	3.5
COc1cc(C#N)ccc1S(=O)(=O)Nc1ccc2c(c1)cc(C(C)C)c(=O)n2C	0.17	3.3	9.3	–	–
COc1cc(C#N)ccc1S(=O)(=O)Nc1ccc2c(c1)cc(C)c(=O)n2C	0.0031	0.046	0.52	3.7	12.3
